Assay results reported in patent US5849259A, “3-,8-substituted deuteroporphyrin derivatives, pharmaceutical agents containing the latter and process for their production” (priority 1992, dated 1998).

Tests used:
[1] = tested on: HT29 colon cancer; experiment: Signal intensity change in tissues of tumor-bearing (HT29 colon cancer) nude mice, Bruker Biospec 2.35 Tesla, MSSE; format: in vivo, nude mice (Balb/c nu/nu); details: 0.05 mmol/kg i.v.; for enhancement, HT29 / enhancement, Kidneys / enhancement, Liver / enhancement, Muscle: time 0 = 100
Method: On a Bruker Biospec nuclear spin tomograph (2.35 Tesla), the al intensity change in various tissues of tumor-bearing (HT29 colon cancer) nude mice (Balb/c nu/nu) was studied after i.v administration of 0.05 mmol/kg of the compound according to example 1c (10 mmol/l, pH 7.2; 37° C. in bidistilled water). The measurement takes place with a multi slice single echo sequence (MSSE). Imaging parameters: TR: 400 ms, TE: 30 ms, layer thickness: 4 mm, number of averages: 4/slice, matrix 256^2. […]

[2] = Tissue relaxation times T1 and T2 (Bruker minispec pc 120) after 0.1 mmol/kg i.v.; format: in vivo, nude mice (Balb/c nu/nu)
Method: e) 9 nude mice (Balb/c nu/nu) with subcutaneously implanted colon cancers (HT29 and WiDr) were each administered by i.v. 0.1 mmol/kg of the deuteroporphyrin derivative of the compound according to example 1c (10 mmol/l dissolved in bidistilled water, pH 7.2, 37° C.). After 0.5, 3 and 24 hours, the animals were killed and dissected. The tissue concentrations were determined after corresponding working-up (HNO3 conc.) by ICP-AES and calculated for % of the administered dose per gram of tissue net weight. Moreover, tissue relaxation times T1 and T2 were determined (Bruker minispec pc 120).
(§1) f) 9 nude mice (Balb/c nu/nu) with subcutaneously implanted carcinomas (HT29, WiDr and MATLu) were each administered by i.v. 0.1 mmol/kg of the deuteroporphyrin derivative of example 1c (10 mmol/L dissolved in bidistilled water, pH 7.2, 37° C.). After 2 hours, the animals were killed and dissected. The tissue concentrations were determined after corresponding working-up (HNO3 conc.) by ICP-AES and calculated for % of the administered dose per gram of tissue net weight. Moreover, tissue relaxation times T1 and T2 were determined (Bruker minispec pc 120). To determine the blank readings, control animals were correspondingly studied without KM-administration.

[3] = Tissue concentrations by ICP-AES 2 hours after 0.1 mmol/kg i.v. in nude mice with implanted carcinomas (HT29, WiDr, MATLu); format: in vivo, nude mice (Balb/c nu/nu)
Method: as §1

[4] = Relaxivity; format: physicochemical

N,N'-Bis[9-carboxylato-2,5,8-tris(carboxylatomethyl)-2,5,8-triazanonyl-carbamoyl]-mesoporphyrin-IX-13,17-diamide, digadolinium complex, disodium salt [Example 1c]
signal intensity change, tumor and muscle [1]: only a slight change
enhancement, HT29 ([1]; 5 min): 116 ± 19
enhancement, Kidneys ([1]; 5 min): 185 ± 34
enhancement, Liver ([1]; 5 min): 122 ± 31
enhancement, Muscle ([1]; 5 min): 119 ± 8
signal intensity change, liver tissue ([1]; 5 minutes p.i.): marked signal intensity increase
enhancement, HT29 ([1]; 60 min): 128 ± 21
enhancement, Kidneys ([1]; 60 min): 240 ± 26
enhancement, Liver ([1]; 60 min): 164 ± 22
enhancement, Muscle ([1]; 60 min): 129 ± 7
enhancement, HT29 ([1]; 90 min): 148 ± 22
enhancement, Kidneys ([1]; 90 min): 248 ± 18
enhancement, Liver ([1]; 90 min): 202 ± 37
enhancement, Muscle ([1]; 90 min): 143 ± 21
enhancement, HT29 ([1]; 120 min): 155 ± 30
enhancement, Kidneys ([1]; 120 min): 246 ± 6
enhancement, Liver ([1]; 120 min): 194 ± 33
enhancement, Muscle ([1]; 120 min): 147 ± 17
enhancement, HT29 ([1]; 150 min): 167 ± 29
enhancement, Kidneys ([1]; 150 min): 225 ± 12
enhancement, Liver ([1]; 150 min): 197 ± 17
enhancement, Muscle ([1]; 150 min): 146 ± 8
enhancement, HT29 ([1]; 180 min): 161 ± 22
enhancement, Kidneys ([1]; 180 min): 212 ± 16
enhancement, Liver ([1]; 180 min): 212 ± 9
enhancement, Muscle ([1]; 180 min): 157 ± 8
tissue relaxation time T1, HT29 tumor ([2]; 0.5 hour): 410 ± 30 ms
tissue relaxation time T1, WiDr tumor ([2]; 0.5 hour): 320 ± 40 ms
tissue relaxation time T1, kidneys ([2]; 0.5 hour): 160 ± 10 ms
tissue relaxation time T1, liver ([2]; 0.5 hour): 220 ± 20 ms
tissue relaxation time T1, muscle ([2]; 0.5 hour): 500 ± 40 ms
tissue relaxation time T2, HT29 tumor ([2]; 0.5 hour): 81 ± 4 ms
tissue relaxation time T2, WiDr tumor ([2]; 0.5 hour): 67 ± 7 ms
tissue relaxation time T2, kidneys ([2]; 0.5 hour): 42 ± 1 ms
tissue relaxation time T2, liver ([2]; 0.5 hour): 34 ± 3 ms
tissue relaxation time T2, muscle ([2]; 0.5 hour): 32 ± 1 ms
effect on tissue relaxation times in prostate cancer (MATLu) versus colon cancers ([2]; 2 hours): greater than in the colon cancers
tissue relaxation time T1, HT29 tumor ([2]; 2 hours): 375 ± 32 ms
tissue relaxation time T1, MATLu ([2]; 2 hours): 361 ± 65 ms
tissue relaxation time T1, WiDr tumor ([2]; 2 hours): 358 ± 70 ms
tissue relaxation time T2, HT29 tumor ([2]; 2 hours): 94 ± 7 ms
tissue relaxation time T2, MATLu ([2]; 2 hours): 102 ± 10 ms
tissue relaxation time T2, WiDr tumor ([2]; 2 hours): 110 ± 9 ms
tissue relaxation time T1, HT29 tumor ([2]; 3 hours): 440 ± 70 ms
tissue relaxation time T1, WiDr tumor ([2]; 3 hours): 430 ± 50 ms
tissue relaxation time T1, kidneys ([2]; 3 hours): 230 ± 30 ms
tissue relaxation time T1, liver ([2]; 3 hours): 220 ± 30 ms
tissue relaxation time T1, muscle ([2]; 3 hours): 560 ± 40 ms
tissue relaxation time T2, HT29 tumor ([2]; 3 hours): 72 ± 8 ms
tissue relaxation time T2, WiDr tumor ([2]; 3 hours): 72 ± 7 ms
tissue relaxation time T2, kidneys ([2]; 3 hours): 47 ± 5 ms
tissue relaxation time T2, liver ([2]; 3 hours): 42 ± 2 ms
tissue relaxation time T2, muscle ([2]; 3 hours): 36 ± 3 ms
tissue relaxation time T1, HT29 tumor ([2]; 24 hours): 540 ± 20 ms
tissue relaxation time T1, WiDr tumor ([2]; 24 hours): 640 ± 10 ms
tissue relaxation time T1, kidneys ([2]; 24 hours): 240 ± 20 ms
tissue relaxation time T1, liver ([2]; 24 hours): 260 ± 10 ms
tissue relaxation time T1, muscle ([2]; 24 hours): 660 ± 10 ms
tissue relaxation time T2, HT29 tumor ([2]; 24 hours): 83 ± 7 ms
tissue relaxation time T2, WiDr tumor ([2]; 24 hours): 85 ± 2 ms
tissue relaxation time T2, kidneys ([2]; 24 hours): 54 ± 10 ms
tissue relaxation time T2, liver ([2]; 24 hours): 48 ± 7 ms
tissue relaxation time T2, muscle ([2]; 24 hours): 31 ± 1 ms
shortening of T1 tissue relaxation times, all three tumors ([2]; HT29, WiDr, MATLu, 2 hours): 2-3 factor
shortening of T1 tissue relaxation times, both tumors ([2]; HT29 and WiDr): 2-3 factor
tissue relaxation time T1, kidneys ([2]; HT29 mice, 2 hours): 150 ± 12 ms
tissue relaxation time T1, liver ([2]; HT29 mice, 2 hours): 174 ± 8 ms
tissue relaxation time T1, muscle ([2]; HT29 mice, 2 hours): 489 ± 57 ms
tissue relaxation time T2, kidneys ([2]; HT29 mice, 2 hours): 59 ± 3 ms
tissue relaxation time T2, liver ([2]; HT29 mice, 2 hours): 49 ± 2 ms
tissue relaxation time T2, muscle ([2]; HT29 mice, 2 hours): 56 ± 2 ms
tissue relaxation time T1, kidneys ([2]; MATLu mice, 2 hours): 171 ± 20 ms
tissue relaxation time T1, liver ([2]; MATLu mice, 2 hours): 191 ± 10 ms
tissue relaxation time T1, muscle ([2]; MATLu mice, 2 hours): 506 ± 10 ms
tissue relaxation time T2, kidneys ([2]; MATLu mice, 2 hours): 60 ± 1 ms
tissue relaxation time T2, liver ([2]; MATLu mice, 2 hours): 51 ± 2 ms
tissue relaxation time T2, muscle ([2]; MATLu mice, 2 hours): 54 ± 2 ms
tissue relaxation time T1, kidneys ([2]; WiDr mice, 2 hours): 159 ± 30 ms
tissue relaxation time T1, liver ([2]; WiDr mice, 2 hours): 180 ± 30 ms
tissue relaxation time T1, muscle ([2]; WiDr mice, 2 hours): 508 ± 40 ms
tissue relaxation time T2, kidneys ([2]; WiDr mice, 2 hours): 64 ± 2 ms
tissue relaxation time T2, liver ([2]; WiDr mice, 2 hours): 53 ± 5 ms
tissue relaxation time T2, muscle ([2]; WiDr mice, 2 hours): 62 ± 3 ms
tissue concentration in prostate cancer (MATLu) versus colon cancers ([3]; 2 hours, 0.1 mmol/kg i.v.): greater than in the colon cancers
tissue concentration, kidneys ([3]; HT29 mice, 2 hours): 6.23 ± 1.80 % of the administered dose per gram of tissue net weight
tissue concentration, kidneys ([3]; MATLu mice, 2 hours): 2.73 ± 0.33 % of the administered dose per gram of tissue net weight
tissue concentration, kidneys ([3]; WiDr mice, 2 hours): 4.23 ± 0.19 % of the administered dose per gram of tissue net weight
tissue concentration, HT29 tumor ([3]; mouse, in vivo, iv, 2 h): 1.00 ± 0.27 % of the administered dose per gram of tissue net weight
tissue concentration, MATLu tumor ([3]; mouse, in vivo, iv, 2 h): 1.92 ± 2.09 % of the administered dose per gram of tissue net weight
tissue concentration, WiDr tumor ([3]; mouse, in vivo, iv, 2 h): 0.83 ± 0.05 % of the administered dose per gram of tissue net weight
relaxivity [4]: 17.86 1 mmol^-1 s^-1
